The subject of data set [1] is Cell Line 1 (CHO) expressing Antibody 1. Kind of data set: Aggregate content (SEC) of Antibody 1, Cell Line 1 shake flask fed-batch culture. In kind it is cell-based, Chinese Hamster. Conditions: shaker. As for the experimental part: (§1) A recombinant Chinese Hamster Ovary (CHO) cell line (Cell Line 1) expressing a humanized monoclonal antibody (Antibody 1) was evaluated in 2 different cultures vessels (shaker flasks and 3 L laboratory-scale bioreactors). The cell line was of CHO DUX-B11 origin based on a DHFR (dihydrofolate reductase) expression system and cultured in a chemically defined basal media, and fed periodically with a chemically-defined feed media (CDFM). The media utilized throughout all of the experiments were chemically-defined, and both animal-component free, and protein-free. Each of the respective media were supplemented as needed with selected bioflavonoids to evaluate for their potential impact on the resulting acidic species profile. In preparation of the cultures, the cell lines were serially expanded through separate seed train inoculums to generate enough cells for inoculation. Process conditions utilized during the cultures were slightly different depending on the culture scale, but similar within each scale to the respective non-bioflavonoid supplemented control conditions. All bioflavonoids utilized were purchased from Sigma-Aldrich (St. Louis, Mo.).
Protein A purified antibody samples from Cell Line 1 were diluted when necessary to 0.5-5 mg/mL in 1×PBS, and measured on a TSKgel G3000SWXL column (Tosoh Bioscience, South San Francisco, Calif.) using an isocratic gradient on an HPLC system with detection at 280 nm. High molecular weight (HMW), monomer, and low molecular weight (LMW) species were assigned and subsequently quantitated based on the chromatographic profile.
(§2) In this Example, EGCG was added into the feed (cell culture medium) at the concentration range of 5 mg/L (low), 20 mg/L (mid) and 50 mg/L (high) in a shaker experiment to determine the impact of EGCG on product quality of a humanized monoclonal antibody (Antibody 1). Detailed cell culture conditions are as described in Table 1.

For data set [2] the test system is unchanged. The data set is described as follows: Cell culture performance (cell growth, viability, titer), Cell Line 1 shake flask fed-batch culture. In kind it is cell-based, Chinese Hamster. On the procedure:
as §1
Viable cell density (VCD) and cell viability values were measured through trypan blue exclusion via Cedex automated cell counters (Roche Applied Science, Indianapolis, Ind.), glucose and lactate values were measured with a ABL-805 (Radiometer Medical, Denmark) blood gas analyzer. Offline pH, dissolved oxygen (DO), and pCO2 measurements were performed as needed with an ABL-805 (Radiometer Medical, Denmark) blood gas analyzer. Osmolality was measured as needed on a Multi-Osmette 2430 osmometer (Precision Systems, Natick, Mass.).
Antibody titers were measured from crude cell culture harvests on a Poros A™ (Life Technologies, Carlsbad, Calif.) affinity column using an HPLC system operating with a low pH, step elution gradient with detection at 280 nm. Absolute concentrations were assigned with respect to reference standard calibration curves.
as §2
(§3) However, it was not clear whether or not additional bioflavonoids would also have the same effects. To evaluate the impact of alternative bioflavonoids, fed-batch shake flask cultures were initiated with CDFM supplemented with 3 different concentrations of genistein, rutin, and naringin, in addition to EGCG. Cell growth, viability, as well as titers and acidic species variants were measured.
(§4) To evaluate the impact of other bioflavonoids, fed-batch shake flask cultures were initiated with CDFM supplemented with multiple concentrations of rutin. Cell growth, viability, as well as titers and acidic species variants were measured and shown in FIGS. 14 and 15, respectively.

Data set [3] concerns recombinant CHO cell lines. Kind of data set: Harvest titer / productivity summary across bioflavonoid supplemented cultures. In kind it is cell-based, Chinese Hamster. As for the experimental part:
Four different recombinant Chinese Hamster Ovary (CHO) cell lines expressing four different recombinant glycoproteins were evaluated in either shaker flask culture, or 3 L laboratory scale bioreactors. Cell Line 1 was genetically engineered to express Antibody 1, Cell Line 2 was genetically engineered to express Antibody 2, Cell Line 3 was genetically engineered to express dual variable domain immunoglobulin 1 (DVD1) and Cell Line 4 was genetically engineered to express dual variable domain immunoglobulin 2 (DVD2).
Protein A Affinity Chromatography-Antibody titers were measured from crude cell culture harvests on a Poros ATM (Life Technologies, Carlsbad, Calif.) affinity column using an HPLC system operating with a low pH, step elution gradient with detection at 280 nm. Absolute concentrations were assigned with respect to reference standard calibration curves.

Data set [4] deals with Cell Line 3 (CHO) expressing DVD1. Kind of data set: Cell culture performance, Cell Line 3 shake flask culture. Conditions: shaker.
The test system of data set [5] is Cell Line 1 (CHO) expressing Antibody 1. Kind of data set: Acidic species variants (WCX-10) of Antibody 1, Cell Line 1 shake flask fed-batch culture. Type of data set: cell-based, Chinese Hamster. Conditions: shaker; for reduction of total acidic species content, absolute value: vs unsupplemented control. As for the experimental part: as §1
Samples were analyzed using an HPLC system equipped with a ProPac WCX-10 analytical column (Thermo Scientific, Sunnyvale, Calif.). Approximately 100 μg of sample was loaded in 6% Buffer B (10 mM sodium phosphate, 500 mM NaCl, pH 5.5) and 94% Buffer A (10 mM sodium phosphate, pH 7.5). The column was run at a flow rate of 1.0 mL/min. The protein was eluted from the column by increasing the buffer B composition from 6% to 16% over 20 minutes. The protein peaks were measured using UV absorbance at 280 nm as the peaks eluted from the column. The column was regenerated using 100% buffer B followed be a re-equilibration period using initial condition before the injection of the next sample. Peaks eluting before the main peak were termed “acidic peaks” and peaks eluting after the main peak were called “basic peaks” (FIG. 2).
as §2, §3
Charge Heterogeneity via Weak Cation Exchange Chromatography-Samples were analyzed using an HPLC system equipped with a ProPac WCX-10 analytical column (Thermo Scientific, Sunnyvale, Calif.). Approximately 100 μg of sample was loaded in 6% Buffer B (10 mM sodium phosphate, 500 mM NaCl, pH 5.5) and 94% Buffer A (10 mM sodium phosphate, pH 7.5). The column was run at a flow rate of 1.0 mL/min. The protein was eluted from the column by increasing the buffer B composition from 6% to 16% over 20 minutes. The protein peaks were measured using UV absorbance at 280 nm as the peaks eluted from the column. The column was regenerated using 100% buffer B followed be a re-equilibration period using initial condition before the injection of the next sample. Peaks eluting before the main peak were termed ‘acidic peaks’ and peaks eluting after the main peak were called ‘basic peaks’ (FIG. 2).
as §4

Where [6] appears, read: concentrations above 0.1 g/L in CDFM, shake flask.

As for `O=C(O[C@@H]1Cc2c(O)cc(O)cc2O[C@@H]1c1cc(O)c(O)c(O)c1)c1cc(O)c(O)c(O)c1` [EGCG, epigallocatechin gallate], the “reduction of aggregation content, relative value” was found to be 9% in data set [1] (5 mg/L in feed), 23% in data set [1] (20 mg/L in feed) and 44% in data set [1] (50 mg/L in feed). The “cell growth vs control” value in data set [2] (0.1 g/L in CDFM, shake flask) is on record as “significantly lower than that of the control culture”. For the same compound, the “cell viability vs control” value in data set [2] (0.1 g/L in CDFM, shake flask, cultures proceeded until Day 12) was “comparable to the control”. In addition, the “impact on cell culture performance (cell growth, viability, titer)” value in data set [2] (5, 20 and 50 mg/L in feed, shaker) is reported as “no impact on cell culture performance”. Further, the cell growth result in data set [2] (setting [6]) is given as “adversely impacted”. In addition, the “culture duration reached before viability became too low” value in data set [2] (setting [6]) is given as 8 days. Further, the harvest titer result in data set [2] (higher levels of supplement, shake flask, Day 12 harvest) was “decreased titer”. Also, in data set [3] (concentrations up to 0.1 g/L, supplemented cultures overall), the “drop in harvest titer” value was “at most 8%”. In data set [3] (supplementation up to 0.2 g/L), the recombinant protein productivity entry is on record as “only nominally impacted”. The “growth profile, viability and productivity vs control” value in data set [4] (0.02, 0.05 and 0.1 g/L in feed) was “performed very similarly to control cultures”. Further, the “viability decrease compared to control” value in data set [4] (0.2 g/L in feed) came to 15%. Also, the entries for the “reduction of total acidic species content, relative value” in data set [5] (5 mg/L in feed), in data set [5] (20 mg/L in feed) and in data set [5] (50 mg/L in feed) were 5%, 10% and 35%, respectively. The “reduction of total acidic species content, absolute value” is 1% in data set [5] (5 mg/L in feed), 2% in data set [5] (20 mg/L in feed) and 7% in data set [5] (50 mg/L in feed).

Values taken from patent publication US9416181B2, “Compositions for cell culture and methods of using the same” (AbbVie Inc., priority 2013, dated 2016).
